Test results as given in patent US20170247693A1 (priority 2016, published 2017).
Where two headings read alike, the source gives them in different places.

Legend:
caspase-3 [1] = type: cell-based, human; conditions: HepG2 infected with vACE-NT; normoxia; 72 h after administering DOX
caspase-3 [2] = type: cell-based; conditions: FLC4 infected with vACE-NT; normoxia; 72 h after administering DOX
[3] = test system: uveal melanoma cells (Mel270, OMM2.3, OMM2.5, OMM1, 92.1); type: cell-based
HepG2 tumors = type: in vivo, SCID mice

## COc1cccc2c1C(=O)c1c(O)c3c(c(O)c1C2=O)C[C@@](O)(C(=O)CO)C[C@@H]3O[C@H]1C[C@H](N)[C@H](O)[C@H](C)O1 [DOX, Doxorubicin]
caspase-3 [1]
  increase of caspase-3 activation: 35 fold
caspase-3 [2]
  increase of caspase-3 activation: 12 fold
[3]
  cell death in uveal melanoma cells: induce cell death
HepG2 tumors; DOX 55 mg/kg IP twice a week, tumors infected with vACE-NT, light emission day 42 vs day 14
  reduction of tumor growth rate: 45%
HepG2 tumors; DOX 75 mg/kg IP twice a week, even in vACE-NT infected tumors
  effect on tumors: almost completely eradicate the tumors
HepG2 tumors; all tumors (vACE-NT, vACE-CREB, vACE-X3 infected), DOX 55 mg/kg
  growth rate of tumors on addition of DOX: reduced the growth rate of all tumors
